Values of other authors as cited in patent US20080166420A1, “Krill Oil Compositions” (priority 2007, published 2008).

O=C(O)c1cccnc1 [Niacin, niacin]
C-reactive protein (CRP) (clinically shown): reduce
high density lipoproteins (clinically shown): significant increase
lipoprotein (a) (clinically shown): significant reduction
low density lipoproteins (clinically shown): reduction
total cholesterol (clinically shown): reduction
triglycerides (clinically shown): significant reduction
fibrinogen (in vivo): reduce
